Results: the NIST ThermoML archive (doi:10.1021/acs.jced.9b00442)
± gives the expanded uncertainty stated by the source.

Settings: 328.15 K; 100 kPa; Liquid; Concentric cylinders viscometry

SMILES | viscosity
CC[N+](C)(C)CCOC.O=S(=O)([N-]S(=O)(=O)C(F)(F)F)C(F)(F)F | 20.6 ± 0.8 mPa·s
CC[N+](C)(C)CCCO.O=S(=O)([N-]S(=O)(=O)C(F)(F)F)C(F)(F)F | 40.8 ± 1.7 mPa·s
CCCC[N+](C)(C)CC.O=S(=O)([N-]S(=O)(=O)C(F)(F)F)C(F)(F)F | 28.8 ± 1.2 mPa·s

Same assay, conditions: 328.15 K; 100 kPa; Liquid; Vibrating tube method

SMILES | mass density
CC[N+](C)(C)CCOC.O=S(=O)([N-]S(=O)(=O)C(F)(F)F)C(F)(F)F | 1403.1 ± 1.1 kg/m3
CC[N+](C)(C)CCCO.O=S(=O)([N-]S(=O)(=O)C(F)(F)F)C(F)(F)F | 1437.3 ± 1.1 kg/m3
CCCC[N+](C)(C)CC.O=S(=O)([N-]S(=O)(=O)C(F)(F)F)C(F)(F)F | 1345.5 ± 1.1 kg/m3

Same assay, conditions: 329.15 K; 100 kPa; Liquid; Vibrating tube method

SMILES | mass density
CC[N+](C)(C)CCOC.O=S(=O)([N-]S(=O)(=O)C(F)(F)F)C(F)(F)F | 1402.2 ± 1.1 kg/m3
CC[N+](C)(C)CCCO.O=S(=O)([N-]S(=O)(=O)C(F)(F)F)C(F)(F)F | 1436.4 ± 1.1 kg/m3
CCCC[N+](C)(C)CC.O=S(=O)([N-]S(=O)(=O)C(F)(F)F)C(F)(F)F | 1344.6 ± 1.1 kg/m3

Same assay, conditions: 330.15 K; 100 kPa; Liquid; Vibrating tube method

SMILES | mass density
CC[N+](C)(C)CCOC.O=S(=O)([N-]S(=O)(=O)C(F)(F)F)C(F)(F)F | 1401.3 ± 1.1 kg/m3
CC[N+](C)(C)CCCO.O=S(=O)([N-]S(=O)(=O)C(F)(F)F)C(F)(F)F | 1435.6 ± 1.1 kg/m3
CCCC[N+](C)(C)CC.O=S(=O)([N-]S(=O)(=O)C(F)(F)F)C(F)(F)F | 1343.7 ± 1.1 kg/m3

Same assay, conditions: 331.15 K; 100 kPa; Liquid; Vibrating tube method

SMILES | mass density
CC[N+](C)(C)CCOC.O=S(=O)([N-]S(=O)(=O)C(F)(F)F)C(F)(F)F | 1400.4 ± 1.1 kg/m3
CC[N+](C)(C)CCCO.O=S(=O)([N-]S(=O)(=O)C(F)(F)F)C(F)(F)F | 1434.7 ± 1.1 kg/m3
CCCC[N+](C)(C)CC.O=S(=O)([N-]S(=O)(=O)C(F)(F)F)C(F)(F)F | 1342.9 ± 1.1 kg/m3

Same assay, conditions: 332.15 K; 100 kPa; Liquid; Vibrating tube method

SMILES | mass density
CC[N+](C)(C)CCOC.O=S(=O)([N-]S(=O)(=O)C(F)(F)F)C(F)(F)F | 1399.4 ± 1.1 kg/m3
CC[N+](C)(C)CCCO.O=S(=O)([N-]S(=O)(=O)C(F)(F)F)C(F)(F)F | 1433.9 ± 1.1 kg/m3
CCCC[N+](C)(C)CC.O=S(=O)([N-]S(=O)(=O)C(F)(F)F)C(F)(F)F | 1342 ± 1.1 kg/m3

Same assay, conditions: 333.15 K; 100 kPa; Liquid; Concentric cylinders viscometry

SMILES | viscosity
CC[N+](C)(C)CCOC.O=S(=O)([N-]S(=O)(=O)C(F)(F)F)C(F)(F)F | 18 ± 0.7 mPa·s
CC[N+](C)(C)CCCO.O=S(=O)([N-]S(=O)(=O)C(F)(F)F)C(F)(F)F | 34.5 ± 1.4 mPa·s
CCCC[N+](C)(C)CC.O=S(=O)([N-]S(=O)(=O)C(F)(F)F)C(F)(F)F | 24.8 ± 1 mPa·s

Same assay, conditions: 333.15 K; 100 kPa; Liquid; Vibrating tube method

SMILES | mass density
CC[N+](C)(C)CCOC.O=S(=O)([N-]S(=O)(=O)C(F)(F)F)C(F)(F)F | 1398.5 ± 1.1 kg/m3
CC[N+](C)(C)CCCO.O=S(=O)([N-]S(=O)(=O)C(F)(F)F)C(F)(F)F | 1433 ± 1.1 kg/m3
CCCC[N+](C)(C)CC.O=S(=O)([N-]S(=O)(=O)C(F)(F)F)C(F)(F)F | 1341.2 ± 1.1 kg/m3

Same assay, conditions: 334.15 K; 100 kPa; Liquid; Vibrating tube method

SMILES | mass density
CC[N+](C)(C)CCOC.O=S(=O)([N-]S(=O)(=O)C(F)(F)F)C(F)(F)F | 1397.6 ± 1.1 kg/m3
CC[N+](C)(C)CCCO.O=S(=O)([N-]S(=O)(=O)C(F)(F)F)C(F)(F)F | 1432.1 ± 1.1 kg/m3
CCCC[N+](C)(C)CC.O=S(=O)([N-]S(=O)(=O)C(F)(F)F)C(F)(F)F | 1340.3 ± 1.1 kg/m3

Same assay, conditions: 335.16 K; 100 kPa; Liquid; Vibrating tube method

SMILES | mass density
CC[N+](C)(C)CCOC.O=S(=O)([N-]S(=O)(=O)C(F)(F)F)C(F)(F)F | 1396.7 ± 1.1 kg/m3
CC[N+](C)(C)CCCO.O=S(=O)([N-]S(=O)(=O)C(F)(F)F)C(F)(F)F | 1431.3 ± 1.1 kg/m3
CCCC[N+](C)(C)CC.O=S(=O)([N-]S(=O)(=O)C(F)(F)F)C(F)(F)F | 1339.5 ± 1.1 kg/m3

Same assay, conditions: 336.15 K; 100 kPa; Liquid; Vibrating tube method

SMILES | mass density
CC[N+](C)(C)CCOC.O=S(=O)([N-]S(=O)(=O)C(F)(F)F)C(F)(F)F | 1395.8 ± 1.1 kg/m3
CC[N+](C)(C)CCCO.O=S(=O)([N-]S(=O)(=O)C(F)(F)F)C(F)(F)F | 1430.4 ± 1.1 kg/m3
CCCC[N+](C)(C)CC.O=S(=O)([N-]S(=O)(=O)C(F)(F)F)C(F)(F)F | 1338.6 ± 1.1 kg/m3

Same assay, conditions: 337.15 K; 100 kPa; Liquid; Vibrating tube method

SMILES | mass density
CC[N+](C)(C)CCOC.O=S(=O)([N-]S(=O)(=O)C(F)(F)F)C(F)(F)F | 1394.9 ± 1.1 kg/m3
CC[N+](C)(C)CCCO.O=S(=O)([N-]S(=O)(=O)C(F)(F)F)C(F)(F)F | 1429.6 ± 1.1 kg/m3
CCCC[N+](C)(C)CC.O=S(=O)([N-]S(=O)(=O)C(F)(F)F)C(F)(F)F | 1337.8 ± 1.1 kg/m3

Same assay, conditions: 338.15 K; 100 kPa; Liquid; Concentric cylinders viscometry

SMILES | viscosity
CC[N+](C)(C)CCOC.O=S(=O)([N-]S(=O)(=O)C(F)(F)F)C(F)(F)F | 15.6 ± 0.6 mPa·s
CC[N+](C)(C)CCCO.O=S(=O)([N-]S(=O)(=O)C(F)(F)F)C(F)(F)F | 28.8 ± 1.2 mPa·s
CCCC[N+](C)(C)CC.O=S(=O)([N-]S(=O)(=O)C(F)(F)F)C(F)(F)F | 21 ± 0.9 mPa·s

Same assay, conditions: 338.15 K; 100 kPa; Liquid; Vibrating tube method

SMILES | mass density
CC[N+](C)(C)CCOC.O=S(=O)([N-]S(=O)(=O)C(F)(F)F)C(F)(F)F | 1394 ± 1.1 kg/m3
CC[N+](C)(C)CCCO.O=S(=O)([N-]S(=O)(=O)C(F)(F)F)C(F)(F)F | 1428.7 ± 1.1 kg/m3
CCCC[N+](C)(C)CC.O=S(=O)([N-]S(=O)(=O)C(F)(F)F)C(F)(F)F | 1336.9 ± 1.1 kg/m3

Same assay, conditions: 339.15 K; 100 kPa; Liquid; Vibrating tube method

SMILES | mass density
CC[N+](C)(C)CCOC.O=S(=O)([N-]S(=O)(=O)C(F)(F)F)C(F)(F)F | 1393.1 ± 1.1 kg/m3
CC[N+](C)(C)CCCO.O=S(=O)([N-]S(=O)(=O)C(F)(F)F)C(F)(F)F | 1427.8 ± 1.1 kg/m3
